Laboratory results reported in US20250100996A1, “HETEROCYCLOALKYL AND HETEROARYL COMPOUNDS AND PHARMACEUTICAL COMPOSITIONS THAT MODULATE IKZF2” (Plexium, Inc., priority 2021, published 2025).

Assays:
IKZF2 (Helios) [1] = biological target: T1, IKZF2 (Helios) (Homo sapiens, UniProt Q9UKS7); assay: IKZF2 reporter degradation assay (HEK 293T IKZF2-mNeonGreen reporter cell line); type: cell-based; conditions: HEK 293T IKZF2-mNeonGreen reporter, 24 hours incubation
T1 construct: Leu-Asp junction (codons ctcgac before the linker); mScarlet (behind P2A) (C, cleaved yes); expressed in transfected cells
Summary of the method: (§1)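 Stable clonal HEK 293T lines express each IKZF-mNeonGreen-P2A-mScarlet fusion. Cells were seeded, attached overnight, then given compound (≤0.5% DMSO, quadruplicate) for 24 h at 37° C. Imaged for percent mNeonGreen-positive cells, segmented on mScarlet. DC50 from four-parameter logistic fit.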

IKZF2 (Helios) [2] = biological target: T2, IKZF2 (Helios) (Homo sapiens, UniProt Q96SW2+Q9UKS7); assay: as above; type: cell-based; conditions: @ 1 μM, HEK 293T IKZF2-mNeonGreen reporter, 24 hours incubation; for inhibition at 1 µM: HEK-293T, 24 h
T2 construct: Leu-Asp junction (codons ctcgac before the linker); mScarlet (behind P2A) (C, cleaved yes); expressed in transfected cells
Summary of the method: as §1

[3] = biological target: T3, human E3 ligase component cereblon (CRBN) (Homo sapiens, UniProt Q96SW2); assay: Cereblon (CRBN) target engagement, NanoBRET TE Intracellular E3 Ligase Assay in transfected HEK-293T cells; conditions: read-out: CRBN Binding EC50
T3 construct: host or cells: HEK293T
Summary of the method: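 HEK-293T cells transiently co-transfected with NanoLuc-CRBN (N-terminal NanoLuc) and DDB1 were dosed with CRBN tracer and an 11-point compound series (typically 10 μM to 100 pM) for 2 h at 37° C. BRET at 450/610 nm gave IC50 by four-parameter logistic fit.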

IKZF3 (Aiolos) = biological target: T4, IKZF3 (Aiolos) (Homo sapiens, UniProt Q9UKT9); assay: IKZF3 reporter degradation assay (HEK 293T IKZF3-mNeonGreen reporter cell line); type: cell-based; conditions: HEK 293T IKZF3-mNeonGreen reporter, 24 hours incubation; for inhibition at 1 µM: HEK-293T, 24 h
T4 construct: Leu-Asp junction (codons ctcgac before the linker); mScarlet (behind P2A) (C, cleaved yes); expressed in transfected cells
Excerpt: Polycistronic plasmids were constructed for the mammalian expression of fluorescent reporter fusions of human transcription factors IKZF1 (Ikaros), IKZF2 (Helios), and IKZF3 (Aiolos). The respective protein sequences had their C-terminal end joined to a GGGGS linker repeated three times followed by mNeonGreen, P2A sequence, and mScarlet. The DNA sequences of the open reading frames are as follows:
IKZF1, IKZF2, and IKZF3 constructs were cloned into the UCOE Hygromycin expression vectors (Millipore Sigma). Reporter constructs were transfected using cationic lipid reagents into adherent HEK 293T cells and stable integrants were selected by treatment with 200 μg/mL hygromycin B. Clonal populations were obtained from the population of stable integrants either by limiting dilution or fluorescence activated cell sorting.
The clonal stable cell lines were maintained under constant 200 μg/mL hygromycin B selection while being passaged for use in the degradation assays. […] The fluorescence intensity of the IKZF1/2/3-mNeonGreen (FITC channel) and mScarlet (PE channel) reporters were routinely analyzed by flow cytometry to confirm consistent expression levels between experiments.
The IKZF1/IKZF2/IKZF3 degradation assays were carried out by harvesting the HEK 293T reporter cell lines and resuspending the cells in media formulated for reduced background fluorescence (FluoroBrite; Thermo Fisher). The respective cell lines were seeded at a density of 4000 cells/well into black-walled 384-well optical grade assay tissue culture plates. The cells were incubated overnight at 37° C. to allow for attachment to the assay plate. Dilutions of the compounds were prepared in DMSO from 10 mM compound stocks. The assay plates were treated with appropriate concentrations of the compounds by dispensing the DMSO dilutions in quadruplicate wells with an upper limit of 0.5% final DMSO.
After 24 hours incubation with the compounds, the assay plates were imaged on an ImageXpress Pico microscopy system (cells maintained at 37° C. during imaging) to obtain the fluorescent readouts. The assay plates were imaged in the FITC and Tetramethylrhodamine (TRITC) channels to obtain the mNeonGreen fluorescence intensity (reporter degradation data) and mScarlet fluorescence intensity (for cell segmentation). 293T-IKZF1 and 293T-IKZF3 reporter cell lines were imaged with exposures of 500 milliseconds (ms) for both FITC and TRITC channels, while the 293T-IKZF2 reporter cell line was imaged with exposures of 1000 ms for FITC and 1250 ms for TRITC. The resulting data was analyzed with Cell Reporter Xpress software using the 2-channel cell scoring analysis with a “percent positive” readout. The TRITC channel was selected for the “nuclei” segmentation with a threshold of 20 while the FITC channel was selected for the “Marker 1” segmentation and a threshold of 100 for the IKZF1 and IKZF3 reporter lines. […] The minimum segmentation width was set to 6 micrometers and the maximum segmentation width was set to 15 micrometers for all cell lines. The DC50 calculations were determined by regression to best fit four-parameter logistic curves using GraphPad Prism.

T1 sequence (Q9UKS7 whole entry): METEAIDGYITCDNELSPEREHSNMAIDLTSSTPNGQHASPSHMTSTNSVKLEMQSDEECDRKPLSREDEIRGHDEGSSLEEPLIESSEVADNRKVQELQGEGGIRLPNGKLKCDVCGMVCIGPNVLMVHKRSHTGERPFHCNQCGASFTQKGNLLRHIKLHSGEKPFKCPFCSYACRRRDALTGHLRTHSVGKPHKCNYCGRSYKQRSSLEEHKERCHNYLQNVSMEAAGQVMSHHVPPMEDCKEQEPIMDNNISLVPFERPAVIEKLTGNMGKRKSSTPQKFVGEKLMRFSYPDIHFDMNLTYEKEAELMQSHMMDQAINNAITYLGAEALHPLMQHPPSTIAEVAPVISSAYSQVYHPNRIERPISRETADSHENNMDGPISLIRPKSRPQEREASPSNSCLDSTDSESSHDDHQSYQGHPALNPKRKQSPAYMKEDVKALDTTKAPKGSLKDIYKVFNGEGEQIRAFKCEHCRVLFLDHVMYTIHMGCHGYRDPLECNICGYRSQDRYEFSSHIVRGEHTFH
T1 sequence (Q96SW2 whole entry, further chain): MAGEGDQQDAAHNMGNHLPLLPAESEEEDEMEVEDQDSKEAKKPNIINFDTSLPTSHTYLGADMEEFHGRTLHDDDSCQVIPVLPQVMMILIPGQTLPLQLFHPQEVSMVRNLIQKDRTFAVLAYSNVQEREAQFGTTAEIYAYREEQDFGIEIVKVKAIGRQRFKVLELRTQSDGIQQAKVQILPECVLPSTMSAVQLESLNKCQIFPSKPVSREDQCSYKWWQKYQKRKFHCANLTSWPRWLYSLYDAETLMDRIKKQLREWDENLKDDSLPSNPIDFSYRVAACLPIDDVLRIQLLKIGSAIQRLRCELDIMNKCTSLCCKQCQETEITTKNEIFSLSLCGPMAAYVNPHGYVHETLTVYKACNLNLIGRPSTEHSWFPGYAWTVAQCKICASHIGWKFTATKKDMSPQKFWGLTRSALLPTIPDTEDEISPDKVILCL
T1 sequence (Q16531 whole entry partner): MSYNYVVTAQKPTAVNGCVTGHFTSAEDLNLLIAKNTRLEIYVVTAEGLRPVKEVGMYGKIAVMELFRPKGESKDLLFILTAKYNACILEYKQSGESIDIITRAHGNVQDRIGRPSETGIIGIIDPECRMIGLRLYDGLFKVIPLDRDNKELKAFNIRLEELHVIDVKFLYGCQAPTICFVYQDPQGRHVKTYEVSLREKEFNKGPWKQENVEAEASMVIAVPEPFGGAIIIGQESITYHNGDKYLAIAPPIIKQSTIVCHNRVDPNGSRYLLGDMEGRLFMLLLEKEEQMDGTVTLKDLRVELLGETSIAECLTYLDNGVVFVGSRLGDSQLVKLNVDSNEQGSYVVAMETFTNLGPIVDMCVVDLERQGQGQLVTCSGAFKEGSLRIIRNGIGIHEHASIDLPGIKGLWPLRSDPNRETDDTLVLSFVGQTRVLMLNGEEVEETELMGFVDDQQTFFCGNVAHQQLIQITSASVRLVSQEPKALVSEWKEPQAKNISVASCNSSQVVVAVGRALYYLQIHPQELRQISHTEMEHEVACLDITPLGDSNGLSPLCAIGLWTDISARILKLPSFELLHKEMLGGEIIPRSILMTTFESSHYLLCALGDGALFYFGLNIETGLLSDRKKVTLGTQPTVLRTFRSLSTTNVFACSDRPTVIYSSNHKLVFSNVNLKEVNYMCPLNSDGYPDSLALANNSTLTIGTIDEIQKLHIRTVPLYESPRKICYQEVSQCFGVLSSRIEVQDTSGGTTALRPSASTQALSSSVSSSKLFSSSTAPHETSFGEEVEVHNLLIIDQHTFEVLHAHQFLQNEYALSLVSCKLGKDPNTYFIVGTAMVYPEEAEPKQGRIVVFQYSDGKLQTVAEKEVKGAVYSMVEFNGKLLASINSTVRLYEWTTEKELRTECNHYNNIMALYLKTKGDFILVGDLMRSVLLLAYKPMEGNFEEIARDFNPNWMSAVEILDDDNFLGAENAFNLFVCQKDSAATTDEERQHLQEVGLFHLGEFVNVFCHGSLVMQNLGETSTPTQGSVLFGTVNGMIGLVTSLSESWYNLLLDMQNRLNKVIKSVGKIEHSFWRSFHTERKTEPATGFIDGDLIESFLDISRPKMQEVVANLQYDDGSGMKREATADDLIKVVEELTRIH
T2 sequence (Q9UKS7 whole entry): as the sequence (Q9UKS7 whole entry) above
T2 sequence (Q96SW2 whole entry): as the sequence (Q96SW2 whole entry, further chain) above
T2 sequence (Q16531 whole entry partner): as the sequence (Q16531 whole entry partner) above
T3 sequence (Q96SW2 whole entry): as the sequence (Q96SW2 whole entry, further chain) above
T3 sequence (Q16531 whole entry partner): as the sequence (Q16531 whole entry partner) above
T4 sequence (Q96SW2 whole entry partner): as the sequence (Q96SW2 whole entry, further chain) above
T4 sequence (Q16531 whole entry partner): as the sequence (Q16531 whole entry partner) above
T4 sequence (Q9UKT9 whole entry): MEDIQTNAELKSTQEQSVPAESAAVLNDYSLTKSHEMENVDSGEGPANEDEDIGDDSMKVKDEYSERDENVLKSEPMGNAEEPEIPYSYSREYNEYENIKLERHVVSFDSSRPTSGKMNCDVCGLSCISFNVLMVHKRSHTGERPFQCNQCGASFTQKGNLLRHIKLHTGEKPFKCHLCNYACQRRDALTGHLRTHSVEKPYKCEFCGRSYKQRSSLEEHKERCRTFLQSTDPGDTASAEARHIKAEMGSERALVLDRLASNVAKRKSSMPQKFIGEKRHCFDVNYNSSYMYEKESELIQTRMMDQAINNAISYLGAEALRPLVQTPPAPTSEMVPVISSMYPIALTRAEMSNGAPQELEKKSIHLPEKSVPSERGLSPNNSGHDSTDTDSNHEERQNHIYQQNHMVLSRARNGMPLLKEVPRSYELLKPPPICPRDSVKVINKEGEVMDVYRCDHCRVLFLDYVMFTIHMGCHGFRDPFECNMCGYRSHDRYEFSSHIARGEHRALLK

SMILES | DC50 (IKZF2 (Helios) [1]) [µM] | inhibition at 1 µM (IKZF2 (Helios) [2]) [%] | EC50 [3] [µM] | DC50 (IKZF3 (Aiolos)) [µM] | IKZF2 % Degradation @ 1 μM (IKZF2 (Helios) [2]) [%] | inhibition at 1 µM (IKZF3 (Aiolos)) [%]
O=C1CCC(N2Cc3cc(O[C@@H]4CCCC[C@@H]4N4CC(c5ncncc5Cl)C4)ccc3C2=O)C(=O)N1 (mixture of isomers) [Compound 139-B, Rac-3-(5-(((cis)-2-(3-(5-chloropyrimidin-4-yl)azetidin-1-yl)cyclohexyl)oxy)-1-oxoisoindolin-2-yl)piperidine-2,6-dione] | 0.033 | 62.4 | 0.035 | > 30 |  | 
O=C1CCC(N2Cc3cc(O[C@H]4CCCC[C@@H]4N4CC(c5ncc(C6CC6)cn5)C4)ccc3C2=O)C(=O)N1 (single isomer, unassigned) [Compound 135-B] | 0.013 |  | 0.003 | > 30 | 77.7 | 
O=C1CCC(N2Cc3cc(O[C@H]4CCCC[C@@H]4N4CC(c5ccncc5F)C4)ccc3C2=O)C(=O)N1 (single isomer, unassigned) [Compound 102-B] | 0.01 | 71.1 | 0.015 | > 30 |  | 
O=C1CCC(N2Cc3cc(OC4CCCC4N4CC(c5ccc(C(F)(F)F)cn5)C4)ccc3C2=O)C(=O)N1 (stereo not shown) [Compound 147-B, 3-(1-oxo-5-((2-(3-(5-(trifluoromethyl)pyridin-2-yl)azetidin-1-yl)cyclopentyl)oxy)isoindolin-2-yl)piperidine-2,6-dione] | 0.13 | 28.6 | 0.022 | > 30 |  | 
O=C1CCC(N2Cc3cc(O[C@H]4CCCC[C@@H]4N4CC(c5ncc(Cl)cn5)C4)ccc3C2=O)C(=O)N1 (single isomer, unassigned) [Compound 111-B] | 0.004 | 76 | 0.007 | > 30 |  | 
O=C1CCC(N2Cc3cc(O[C@H]4CCCC[C@@H]4N4CC(c5ccc(Cl)cn5)C4)ccc3C2=O)C(=O)N1 (single isomer, unassigned) [Compound 100-B] | 0.005 |  | 0.02 | > 30 | 80.5 | 
CN(C)C(=O)C1CCN(c2ccc(CN3CCC(O)(c4ccc5c(c4)CN(C4CCC(=O)NC4=O)C5=O)CC3)cc2)CC1 (stereo not shown) [Compound 41-A, 1-(4-((4-(2-(2,6-dioxopiperidin-3-yl)-1-oxoisoindolin-5-yl)-4-hydroxypiperidin-1-yl)methyl)phenyl)-N,N-dimethylpiperidine-4-carboxamide] | 0.482 | 37.4 | 0.611 | 0.456 |  | 18.1
O=C1CCC(N2Cc3cc(O[C@@H]4CCCC[C@H]4N4CC(c5ccc(C(F)(F)F)cn5)C4)ccc3C2=O)C(=O)N1 (single isomer, unassigned) [Compound 128-B] | 0.018 | 24.2 | 0.011 | > 30 |  | 
O=C1CCC(N2Cc3cc(O[C@H]4CCCC[C@@H]4N4CC(c5ncc(C(F)(F)F)cn5)C4)ccc3C2=O)C(=O)N1 (single isomer, unassigned) [Compound 123-B] | 0.0001 |  | 0.001 | > 30 | 69.6 | 
O=C1CCC(N2Cc3cc(OC4CCCCC4N4CC(c5cccnn5)C4)ccc3C2=O)C(=O)N1 (stereo not shown) [Compound 142-B, 3-(1-oxo-5-((2-(3-(pyridazin-3-yl)azetidin-1-yl)cyclohexyl)oxy)isoindolin-2-yl)piperidine-2,6-dione] | 0.605 | 31.5 | 0.167 | > 30 |  | 
O=C1CCC(N2Cc3cc(O[C@@H]4CCCC[C@H]4N4CC(c5ccc(C(F)(F)F)cn5)C4)ccc3C2=O)C(=O)N1 (single isomer, unassigned) [Compound 129-B] | 0.02 |  | 0.038 | > 30 | 42.4 | 
CC1(C(=O)N2CCC(C3CN([C@H]4CCCC[C@@H]4Oc4ccc5c(c4)CN(C4CCC(=O)NC4=O)C5=O)C3)CC2)CCC1 (stereo partly drawn) [Compound 25-A, 3-(5-(((1S,2S)-2-(3-(1-(1-methylcyclobutane-1-carbonyl)piperidin-4-yl)azetidin-1-yl)cyclohexyl)oxy)-1-oxoisoindolin-2-yl)piperidine-2,6-dione] | 0.001 | 84.4 | 0.004 | > 30 |  | 
CC(C)(C)OC(=O)N1CCC(C2CN([C@H]3CCCC[C@@H]3Oc3ccc4c(c3)CN(C3CCC(=O)NC3=O)C4=O)C2)CC1 (stereo partly drawn) [Compound 26-A, tert-butyl 4-(1-((1S,2S)-2-((2-(2,6-dioxopiperidin-3-yl)-1-oxoisoindolin-5-yl)oxy)cyclohexyl)azetidin-3-yl)piperidine-1-carboxylate] | 0.001 | 74.7 | 0.001 | > 30 |  | 
O=C1CCC(N2Cc3cc(O[C@@H]4CCCC[C@@H]4N4CC(c5ccc6ccccc6n5)C4)ccc3C2=O)C(=O)N1 (single isomer, unassigned) [Compound 91-B] | 0.029 | 47.3 | 0.005 | > 30 |  | 
O=C1CCC(N2Cc3cc(O[C@@H]4CCCC[C@@H]4N4CC(c5cncc(Cl)c5)C4)ccc3C2=O)C(=O)N1 (mixture of isomers) [Compound 155-B, Rac-3-(5-(((cis)-2-(3-(5-chloropyridin-3-yl)azetidin-1-yl)cyclohexyl)oxy)-1-oxoisoindolin-2-yl)piperidine-2,6-dione] | 0.011 | 75.5 | 0.018 | > 30 |  | 
O=C1CCC(N2Cc3cc(O[C@H]4CCCC[C@@H]4N4CC(C5CCN(C6CCC6)CC5)C4)ccc3C2=O)C(=O)N1 (stereo partly drawn) [Compound 56-A, 3-(5-(((1S,2S)-2-(3-(1-cyclobutylpiperidin-4-yl)azetidin-1-yl)cyclohexyl)oxy)-1-oxoisoindolin-2-yl)piperidine-2,6-dione] | 0.03 | 60.8 | 0.05 | > 30 |  | 
O=C1CCC(N2Cc3cc(O[C@H]4CCCC[C@@H]4N4CC(c5ccc(C(F)(F)F)nc5)C4)ccc3C2=O)C(=O)N1 (single isomer, unassigned) [Compound 126-B] | 0.006 | 94.8 | 0.007 | 0.0866 |  | 39.5
O=C1CCC(N2Cc3cc(O[C@@H]4CCCC[C@@H]4N4CC(c5cc(Cl)ccn5)C4)ccc3C2=O)C(=O)N1 (mixture of isomers) [Compound 165-B, Rac-3-(5-(((cis)-2-(3-(4-chloropyridin-2-yl)azetidin-1-yl)cyclohexyl)oxy)-1-oxoisoindolin-2-yl)piperidine-2,6-dione] | 0.009 | 58.6 | 0.013 | > 30 |  | 
O=C1CCC(N2Cc3cc(O[C@H]4CCCC[C@@H]4N4CC(c5cncc(Cl)c5)C4)ccc3C2=O)C(=O)N1 (single isomer, unassigned) [Compound 117-B] | 0.025 |  | 0.021 | > 30 | 68.4 | 
O=C1CCC(N2Cc3cc(O[C@H]4CCCC[C@H]4N4CC(c5ccncc5)C4)ccc3C2=O)C(=O)N1 (single isomer, unassigned) [Compound 136-B] | 0.03 |  | 0.034 | > 30 | 61.4 | 
